# Data taken from publication PMC12603070, “A high-throughput screening approach to discover potential colorectal cancer chemotherapeutics: repurposing drugs to identify novel disruptors of 14-3-3 proteins” (Cell Death & Disease, 2025).
# Structures can show the parent of a compound that is named as a salt. Where two headings read alike, the source gives them in different places. Numbered stars: 1 amine (or outer) side, 2 acyl side, 3 side chain; on linkers, the order of the positions; unused ones are H or OH. Bridge positions count the residues as written; N and C are the ends. Square brackets hold non-standard residues; d marks the D form. Peptide text beside a SMILES is read from it. * marks the point of attachment. pTerphenylCO(4''-OnC5H11) = CCCCCOc1ccc(-c2ccc(-c3ccc(C(=O)*)cc3)cc2)cc1; Orn(4R-OH,5R-OH) = O=C([C@H](C[C@@H](O)[C@@H](O)N[*:3])N[*:1])[*:2]; hTyr(3S-OH,4S-OH) = N[C@H](C(=O)O)[C@H](O)[C@@H](O)c1ccc(O)cc1; Pro(3S-OH,4S-Me) = C[C@H]1CN[C@H](C(=O)O)[C@H]1O; Hyp = O=C(O)[C@@H]1C[C@@H](O)CN1
# Assays:
# [1] = target: T1, 14-3-3ζ:BAD-112-136F interactions (Homo sapiens, UniProt P63104); experiment: BRET sensor screen for disruption of 14-3-3ζ-Rluc8:BAD-112-136F-mCitrine in living NIH-3T3 cells; type: cell-based, murine; set-up: inhibition: dose or concentration left out as unconfirmed; BRET reduction on NIH-3T3: unit not given here; settings: for inhibition / inhibition at 20 µM: NIH3T3, 3 h
# T1 construct: expressed in transfected cells; host or cells: NIH-3T3 fibroblasts, bi-directional pBI-CMV1 plasmid
# T1 sequence (P63104 1-245): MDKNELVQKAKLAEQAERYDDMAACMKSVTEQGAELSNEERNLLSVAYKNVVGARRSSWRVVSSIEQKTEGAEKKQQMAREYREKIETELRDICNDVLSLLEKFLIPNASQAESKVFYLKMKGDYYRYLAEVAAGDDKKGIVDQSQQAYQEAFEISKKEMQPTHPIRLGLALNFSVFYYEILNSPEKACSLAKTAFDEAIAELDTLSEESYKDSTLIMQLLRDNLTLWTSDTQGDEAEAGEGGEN
# Experimental: The Z’-score, which evaluates the robustness of an HTS assay readout, was calculated according to standard protocols. For the HTS, 384-well plates were coated with 100 μg/mL poly-L-ornithine (Sigma, Missouri, United States; #P3655) overnight at 37 °C, followed by rinsing with sterilized water. NIH-3T3 cells were transfected with the BRET sensor two days prior to experimentation, followed by replating onto the pre-coated 384-well plates at a density of 20,000 cells/well. After 24 h of incubation at 37 °C, growth media was replaced by Krebs buffer (pH 7.4).
# NIH-3T3 cells = experiment: Hoechst/propidium iodide cell death assay in NIH-3T3; type: cell-based; settings: for cytotoxicity at 20 µM: Mus musculus, NIH3T3, 24 h
# Excerpt: (§1) A high-content imaging system (PerkinElmer; Operetta CLS), was used to quantify cell death and apoptosis by calculating the number of propidium iodide-positive cells relative to Hoechst-positive cells, and the number of Annexin V-positive cells relative to Hoechst-positive cells, respectively.
# HT-29 cells = experiment: Hoechst/propidium iodide cell death assay in HT-29; type: cell-based, human; settings: for cytotoxicity at 20 µM: Homo sapiens
# Excerpt: as §1
# Caco-2 cells = type: cell-based; settings: for Percentage of cell death % 24h CACO-2: 20 µM; for Percentage of cell death % 48h, Caco-2: 20 μM
# Excerpt: as §1
# [2] = NIH-3T3 cells, hits from the primary screen, read-out: BRET reduction on NIH-3T3
# [3] = NIH-3T3 expressing BRET sensor, 20 µM, 3 h, read-out: BRET reduction on NIH-3T3
# [4] = 20 µM, 24 h, read-out: Percentage of cell death % 24h NIH3t3
# [5] = HT-29, 24 h, 20 µM, 24 h, read-out: Percentage of cell death % 24h HT-29
# [6] = HT-29, 48 h, HT-29, 48h, 20 μM, read-out: Percentage of cell death % 48h, HT-29
# [7] = NIH-3T3 cells, hits from the primary screen
# [8] = read-out: Percentage of cell death % 24h NIH3t3
# [9] = HT-29, 24 h, read-out: Percentage of cell death % 24h HT-29
# [10] = HT-29, 48 h, read-out: Percentage of cell death % 48h, HT-29
# [11] = NIH-3T3 expressing BRET sensor, 20 µM, 3 h
Compound,"inhibition [1, 2] [%]","inhibition at 20 µM [1, 3] [%]",cytotoxicity at 20 µM (NIH-3T3 cells; [4]) [%],"Percentage of cell death % 48h, NIH3T3 (NIH-3T3 cells) [%]",cytotoxicity at 20 µM (HT-29 cells; [5]) [%],cytotoxicity at 20 µM (HT-29 cells; [6]) [%],also measured
Cn1ncc(Cl)c1-c1cc(C(=O)N[C@H](CN)Cc2cccc(F)c2)sc1Cl [Afuresertib],27.8,27.8,57.7,38.6266,3.99,37.5,"Percentage of cell death % 24h CACO-2 (Caco-2 cells): 23.3726%; Percentage of cell death % 48h, Caco-2 (Caco-2 cells): 43.2801%"
"CCCCCOc1ccc(-c2ccc(-c3ccc(C(=O)N[C@H]4C[C@@H](O)[C@@H](O)NC(=O)[C@@H]5[C@@H](O)[C@@H](C)CN5C(=O)[C@H]([C@@H](C)O)NC(=O)[C@H]([C@H](O)[C@@H](O)c5ccc(O)cc5)NC(=O)[C@@H]5C[C@@H](O)CN5C(=O)[C@H]([C@@H](C)O)NC4=O)cc3)cc2)cc1 [Anidulafungin] ({pTerphenylCO(4''-OnC5H11)}-[Orn(4R-OH,5R-OH)]T[Hyp][hTyr(3S-OH,4S-OH)]T[Pro(3S-OH,4S-Me)]; lactam 1-C)",,,,12.0742,,,"inhibition at 20 µM ([1]; read-out: BRET reduction on NIH-3T3): 27%; BRET reduction on NIH-3T3 [1, 7]: 27.0241; cytotoxicity at 20 µM (NIH-3T3 cells; [8]): 33.6%; cytotoxicity at 20 µM (HT-29 cells; [9]): 4.73%; cytotoxicity at 20 µM (HT-29 cells; [10]): 7.05%; Percentage of cell death % 24h CACO-2 (Caco-2 cells): 1.705%; Percentage of cell death % 48h, Caco-2 (Caco-2 cells): 1.424%"
CCCCCCCCCCCCCCCC[n+]1ccccc1 [Cetylpyridinium Chloride],,,,74.7179,,,"cytotoxicity at 20 µM (NIH-3T3 cells; [8]): 81.9%; cytotoxicity at 20 µM (HT-29 cells; [9]): 27.2%; cytotoxicity at 20 µM (HT-29 cells; [10]): 76.9%; Percentage of cell death % 24h CACO-2 (Caco-2 cells): 22.2457%; Percentage of cell death % 48h, Caco-2 (Caco-2 cells): 63.7687%"
Clc1ccc(CO/N=C(\Cn2ccnc2)c2ccc(Cl)cc2Cl)c(Cl)c1.O=[N+]([O-])O [Oxiconazole (nitrate)],,,,4.864,,,"Percentage of cell death % 24h NIH3t3 (NIH-3T3 cells; 20 µM, 24 h): 5.3556%; Percentage of cell death % 24h HT-29 (HT-29 cells; 20 µM, 24 h): 3.543%; Percentage of cell death % 48h, HT-29 (HT-29 cells; HT-29, 48h, 20 μM): 5.935%; Percentage of cell death % 24h CACO-2 (Caco-2 cells): 8.851%; Percentage of cell death % 48h, Caco-2 (Caco-2 cells): 7.056%"
"C=CC[C@@H]1/C=C(\C)C[C@H](C)C[C@H](OC)[C@H]2O[C@@](O)(C(=O)C(=O)N3CCCC[C@H]3C(=O)O[C@H](/C(C)=C/[C@@H]3CC[C@@H](O)[C@H](OC)C3)[C@H](C)[C@@H](O)CC1=O)[C@H](C)C[C@@H]2OC [Tacrolimus (FK506), Tacrolimus]",26,26,0.808,0.523,0.958,2.46,
CC/C(=C(\c1ccccc1)c1ccc(OCCN(C)C)cc1)c1ccccc1 [Tamoxifen Citrate],51.8,51.8,76.5,76.3192,5.86,63.3,
CC/C(=C(\c1ccccc1)c1ccc(OCCN(C)C)cc1)c1ccccc1 [Tamoxifen],,,,78.8324,,,"BRET reduction on NIH-3T3 [1, 7]: 54.2923; BRET reduction on NIH-3T3 [1, 11]: 54.2923; Percentage of cell death % 24h NIH3t3 (NIH-3T3 cells; 20 µM, 24 h): 81.9489%; Percentage of cell death % 24h HT-29 (HT-29 cells; 20 µM, 24 h): 3.365%; Percentage of cell death % 48h, HT-29 (HT-29 cells; HT-29, 48h, 20 μM): 61.8661%; %Cell death HT-29 (HT-29 cells; HT-29, time not given): 63.3%"
CSc1ccc2c(c1)N(CCC1CCCCN1C)c1ccccc1S2 (centres unmarked) [Thioridazine HCl],27.4,27.4,83.3,84.4863,1.72,16.7,
CCCCCCCCCCCCCCCC[N+](C)(C)CCN(Cc1ccc(OC)cc1)c1ncccn1 [Thonzonium Bromide],38.3,38.3,86.2,80.9399,94.9,94.7,
"Cn1cncc1[C@@](N)(c1ccc(Cl)cc1)c1ccc2c(c1)c(-c1cccc(Cl)c1)cc(=O)n2C [Tipifarnib (Zarnestra), Tipifarnib]",,,,52.702,,,"inhibition at 20 µM ([1]; read-out: BRET reduction on NIH-3T3, NIH-3T3 cells, hits from the primary screen): 43.9%; inhibition at 20 µM ([1]; read-out: BRET reduction on NIH-3T3, NIH-3T3 expressing BRET sensor, 20 µM, 3 h): 43.9%; cytotoxicity at 20 µM (NIH-3T3 cells; read-out: Percentage of cell death % 24h NIH3t3, 20 µM, 24 h): 65.9%; cytotoxicity at 20 µM (HT-29 cells; HT-29, 24 h, read-out: Percentage of cell death % 24h HT-29, 20 µM, 24 h): 3.09%; cytotoxicity at 20 µM (HT-29 cells; HT-29, 48 h, read-out: Percentage of cell death % 48h, HT-29, HT-29, 48h, 20 μM): 12.9%"
Sodium Aescinate,,,,15.6079,,,"BRET reduction on NIH-3T3 [1, 7]: 53.9832; BRET reduction on NIH-3T3 [1, 11]: 53.9832; Percentage of cell death % 24h NIH3t3 (NIH-3T3 cells; 20 µM, 24 h): 50.0783%; Percentage of cell death % 24h HT-29 (HT-29 cells; 20 µM, 24 h): 0.8457%; Percentage of cell death % 48h, HT-29 (HT-29 cells; HT-29, 48h, 20 μM): 0.6065%"
Vitamin B12,,,,0.1179,,,"BRET reduction on NIH-3T3 [1, 7]: 36.7374; BRET reduction on NIH-3T3 [1, 11]: 36.7374; Percentage of cell death % 24h NIH3t3 (NIH-3T3 cells; 20 µM, 24 h): 0.2976%; Percentage of cell death % 24h HT-29 (HT-29 cells; 20 µM, 24 h): 0.4615%; Percentage of cell death % 48h, HT-29 (HT-29 cells; HT-29, 48h, 20 μM): 1.059%"

# Second part, led by results:
"inhibition [1, 2] [%]","inhibition at 20 µM [1, 3] [%]",Compound,cytotoxicity at 20 µM (NIH-3T3 cells; [4]) [%],"Percentage of cell death % 48h, NIH3T3 (NIH-3T3 cells) [%]",cytotoxicity at 20 µM (HT-29 cells; [5]) [%],cytotoxicity at 20 µM (HT-29 cells; [6]) [%],also measured
,27.3,Clc1ccc(C(Cn2ccnc2)OCc2ccsc2Cl)c(Cl)c1 (centres unmarked) [Tioconazole],7.78,3.795,2.22,5.98,"inhibition at 20 µM [1, 2]: 27.3%"
30.9,30.9,Cc1c(C)c2c(c(C)c1O)CCC(C)(COc1ccc(CC3SC(=O)NC3=O)cc1)O2 (centres unmarked) [Troglitazone],0.791,0.3187,0.272,0.925,
30.4,30.4,COc1cc(C(=O)NS(=O)(=O)c2ccccc2C)ccc1Cc1cn(C)c2ccc(NC(=O)OC3CCCC3)cc12 [Zafirlukast],0.402,0.2485,0.343,0.917,
25.5,25.5,O=C1Cc2cc(CCN3CCN(c4nsc5ccccc45)CC3)c(Cl)cc2N1 [Ziprasidone hydrochloride monohydrate],1.15,0.2764,1.29,1.87,
